Reference: US11220503B2, “Phthalazine derivatives, preparation method, pharmaceutical composition and usage thereof” (Shanghai SIMR Biotech Co., Ltd., priority 2015, dated 2022)

Key:
[1] = Compound tissue distribution (brain/plasma); assay type: in vivo; conditions: brain and plasma, po; rat, 1 mg/kg p.o. in 5% DMSO+70% PEG400+25% H2O, one hour; read-out: Brain/Plasma ratio
Experimental: The distribution ratio of blood brain tissue was calculated by comparing the concentration of compound in rat plasma and brain tissue. The experimental animals were divided into two groups, the plasma group and the brain group, each with three. To measure brain to plasma ratio, rats were administed compounds in 50% PEG400 p.o. at a dose of 10 mg compound to be tested/kg. One hour later, plasma and brain samples were taken. Concentrations of compounds in brain and plasma were detected using LC-MS/MS-AJ (Triple Quad 5500) assay and analyzed using Phoenix WinNonlin.
We also measured the brain to plasma ratio of compound #24. The experimental animals were divided into two groups, the plasma group and the brain group, each with three. To measure the brain to plasma ratio, Rats were administered compounds (1 mg/kg in 5% DMSO+70% PEG400+25% H2O p.o.). One hour later, plasma and brain samples were taken. Concentrations of compounds in brain and plasma were detected using a LC-MS/MS-AJ (Triple Quad 5500) assay and analyzed using Phoenix WinNonlin.

α5β3γ2 receptor = biological target: T1, α5β3γ2 receptor (Homo sapiens, UniProt P18507+P31644); assay: Supplementary data for cell level screening: new electrophysiology method (I. Lecker et al); assay type: cell-based
T1 construct: expressed in transfected cells; host or cells: HEK-293 (stably transfected)

α5-GABAA receptor = conditions: cited from earlier work

T1 sequence (P31644 32-462): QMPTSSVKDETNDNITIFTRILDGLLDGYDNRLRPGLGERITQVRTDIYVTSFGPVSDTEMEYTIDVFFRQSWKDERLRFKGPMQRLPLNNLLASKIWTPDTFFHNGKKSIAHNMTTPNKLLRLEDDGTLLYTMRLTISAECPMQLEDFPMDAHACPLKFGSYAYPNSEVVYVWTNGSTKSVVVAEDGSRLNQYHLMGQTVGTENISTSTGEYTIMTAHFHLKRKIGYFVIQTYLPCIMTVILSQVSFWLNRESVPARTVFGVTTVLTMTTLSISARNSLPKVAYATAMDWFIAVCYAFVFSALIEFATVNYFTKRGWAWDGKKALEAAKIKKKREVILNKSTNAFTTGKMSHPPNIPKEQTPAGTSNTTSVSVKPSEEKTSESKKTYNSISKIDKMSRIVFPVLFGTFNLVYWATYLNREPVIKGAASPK
T1 sequence (P28472 26-473 isoform P28472-2 partner limits assumed): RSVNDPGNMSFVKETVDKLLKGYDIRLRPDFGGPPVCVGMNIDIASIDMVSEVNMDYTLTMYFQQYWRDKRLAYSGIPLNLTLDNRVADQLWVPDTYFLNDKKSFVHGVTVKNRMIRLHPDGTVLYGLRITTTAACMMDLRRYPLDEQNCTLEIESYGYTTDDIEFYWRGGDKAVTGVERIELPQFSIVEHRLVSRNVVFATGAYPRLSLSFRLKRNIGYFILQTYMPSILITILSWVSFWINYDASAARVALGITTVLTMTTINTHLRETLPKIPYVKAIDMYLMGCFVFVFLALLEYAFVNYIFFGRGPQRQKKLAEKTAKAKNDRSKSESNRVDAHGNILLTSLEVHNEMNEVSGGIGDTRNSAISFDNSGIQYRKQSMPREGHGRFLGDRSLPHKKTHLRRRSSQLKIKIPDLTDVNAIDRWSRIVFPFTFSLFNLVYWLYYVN
T1 sequence (P18507 40-475): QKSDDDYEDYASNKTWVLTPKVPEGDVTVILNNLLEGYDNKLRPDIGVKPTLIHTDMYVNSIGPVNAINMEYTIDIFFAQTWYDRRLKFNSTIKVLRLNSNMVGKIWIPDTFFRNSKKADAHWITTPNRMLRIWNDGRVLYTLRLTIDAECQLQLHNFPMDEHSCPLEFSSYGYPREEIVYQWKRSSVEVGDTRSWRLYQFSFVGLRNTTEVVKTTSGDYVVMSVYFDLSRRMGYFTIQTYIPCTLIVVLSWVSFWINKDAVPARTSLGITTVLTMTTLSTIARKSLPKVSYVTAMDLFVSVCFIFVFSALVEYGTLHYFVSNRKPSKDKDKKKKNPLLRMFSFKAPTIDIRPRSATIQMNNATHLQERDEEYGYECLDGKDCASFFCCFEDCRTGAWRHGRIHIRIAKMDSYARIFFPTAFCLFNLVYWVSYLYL

Row | Kp at 1 h [1] | Inverse agonism efficacy(%) (α5β3γ2 receptor; new method, CsCl intracellular solution, GABA 0.1˜0.3 CM, other procedures as previous method) | inverse agonism efficacy of the compound/α5IA inverse agonism efficacy (α5β3γ2 receptor; ratio to the α5IA reference run above in the table (r4 or r29)) | Compound | blocking of the binding of (^3H) R0-15-1788 in brain (α5-GABAA receptor)
1 | 0.044 | −34.5% | 1.855 | Cc1cc(-c2nnc3c4ccccc4c(OCc4ccc(C(=O)NCC5CC5)cn4)nn23)no1 [Compound 24, N-(cyclopropylmethyl)-6-(((3-(5-methylisoxazol-3-yl)-[1,2,4]triazolo[3,4-a]phthalazin-6-yl)oxy)methyl)nicotinamide] | –
2 | – | – | – | Cc1cc(-c2nncc3c(C(C)(C)C)c(OCc4ncnn4C)nn23)no1 [MRK016, 3-tert-butyl-7-(5-methylisoxazol-3-yl)-2-(1-methyl-1H-1,2,4-triazol-5-ylmethoxy) pyrazolo[1,5-d][1,2,4]triazine] | could efficiently block the binding
3 | – | – | – | Cn1ncnc1COc1nn2c(-c3cc(CO)on3)nncc2c1C(C)(C)C [MRK016-M3] | almost no blocking effect
